# Results reported in PMC5554137, “Evaluation of novel factor Xa inhibitors from Oxya chinensis sinuosa with anti-platelet aggregation activity” (Scientific Reports, 2017).
# Columns and labels:
# Urokinase = Urokinase (Homo sapiens, UniProt P00749); assay: Chromogenic substrate assay, Ki determination, Urokinase; assay type: biochemical
# Experimental: (§1) The inhibitor (I) constants (Ki) were determined for the inhibition of a series of human enzymes (FXa, thrombin, trypsin, plasmin, protein Ca, streptokinase, tPA, and urokinase) by each compound. Chromogenic substrate assays were performed using a Labsystems IEMS (Cergy Pontoise, France) microtiter plate reader. In each assay, the compound was tested at a minimum of seven concentrations in duplicate to obtain an inhibition curve. Assays were performed according to the following general procedure. In a 96-well microtiter plate, 25 μL of compound, inhibitor solution or buffer was added to 50 μL of substrate. A volume of 25 μL of enzyme solution was added just before the plate was placed in the microtiter plate reader for 1 h at 37 °C. The hydrolysis of the substrate yields p-nitroaniline, which was continuously monitored spectrophotometrically at 405 nm. Data were collected and the initial rate of substrate hydrolysis [Vo (mOD/minute)] was calculated. Following Michaelis-Menten kinetics, the affinity of the enzyme for the substrate, in the absence of the inhibitor (Km) and in the presence of an inhibitor (Kp), was determined to be the negative inverse x-intercept of Lineweaver–Burk plots. The dissociation constant for inhibition (Ki) was calculated using the following equation: Ki = (Km·[I])/(Kp − Km) as described by Williams and Morrison[40].
# C57BL/6 mice = assay: Tail bleeding time; assay type: in vivo; details: tail-cutting assay, mean ± SD, n = 10
# Experimental: Figure 4 Effects of compounds 1–4 on clotting and bleeding time. (A) One hour after administration (intravenous injection) of compound 1 (white box), 2 (light gray box), 3 (dark gray box), or 4 (black box), blood was collected from the mice and platelet-poor plasma (PPP) was obtained by centrifugation at 2,000 × g for 10 min at room temperature to test ex vivo activated partial thromboplastin time (aPTT). (B) Each group received a daily intravenous injection of the indicated compound for four consecutive days. Fifteen minutes after the last administration, blood samples were collected and in vivo aPTT was measured. (C) Fifteen minutes after administration of each compound or aspirin (4.5 or 9 mg/kg for 30 min) or the vehicle, tail tips (3 mm long) were cut from each mouse, and the remaining tail was immediately immersed into saline at 37 °C. Accumulated bleeding times (including periods of re-bleeding) were recorded. D = 0.2% DMSO used as the vehicle control. Data are presented as means ± SD of three independent experiments. *p < 0.05 vs. vehicle alone, analyzed by one-way ANOVA, followed by Tukey multiple comparison testing.
# To assess bleeding risk incurred by compounds 1–4, we measured bleeding time in mice treated with each compound (up to 30 µM/mouse) by using a tail-cutting assay; the concentration used was three-fold higher than the doses used for the in vivo anti-thrombotic studies. Aspirin-treated mice (9 mg/kg) served as positive controls. […] However, the bleeding time in mice treated with compounds 1–4 was shorter than that observed in mice treated with aspirin ([…], mean ± SD, n = 10). The dose required to avoid thrombus formation and to protect against paralysis or death in mice was determined to be 5 µM per mouse (Fig. 7C).
# Tail bleeding times were measured using the method described by Dejana et al.[37]. Briefly, C57BL/6 mice were fasted overnight prior to the experiments. […] after the i.v. administration of each compound, the tails of the mice were transected […] from their tips. Bleeding time was defined as the time elapsed until bleeding stopped. Bleeding times that exceeding 15 min were recorded as 15 min.
# Protein Ca = Protein Ca (Homo sapiens, UniProt P04070); assay: Chromogenic substrate assay, Ki determination, Protein Ca; assay type: biochemical
# Sequence of Protein Ca (P04070 212-461 limits assumed): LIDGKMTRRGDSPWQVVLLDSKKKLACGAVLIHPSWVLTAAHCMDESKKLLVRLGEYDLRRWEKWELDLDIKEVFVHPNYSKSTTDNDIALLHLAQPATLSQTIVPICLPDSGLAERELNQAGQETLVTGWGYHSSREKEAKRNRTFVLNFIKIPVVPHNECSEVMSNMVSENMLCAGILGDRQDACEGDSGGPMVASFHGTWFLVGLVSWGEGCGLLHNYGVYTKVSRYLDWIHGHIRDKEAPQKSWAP
# Sequence of Protein Ca (P04070 43-197 limits assumed): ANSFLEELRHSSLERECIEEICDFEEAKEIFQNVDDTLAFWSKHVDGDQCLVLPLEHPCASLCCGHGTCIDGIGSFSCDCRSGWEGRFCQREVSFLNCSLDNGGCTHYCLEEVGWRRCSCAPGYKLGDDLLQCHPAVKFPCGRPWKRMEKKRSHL
# Experimental: as §1
# FXa = target: T1, FXa (Homo sapiens, UniProt P00742); assay: Chromogenic substrate assay, Ki determination, Factor Xa; assay type: biochemical
# T1 construct: purchased Haematologic Technologies (Essex Junction, VT, USA)
# T1 sequence (P00742 235-488 limits assumed): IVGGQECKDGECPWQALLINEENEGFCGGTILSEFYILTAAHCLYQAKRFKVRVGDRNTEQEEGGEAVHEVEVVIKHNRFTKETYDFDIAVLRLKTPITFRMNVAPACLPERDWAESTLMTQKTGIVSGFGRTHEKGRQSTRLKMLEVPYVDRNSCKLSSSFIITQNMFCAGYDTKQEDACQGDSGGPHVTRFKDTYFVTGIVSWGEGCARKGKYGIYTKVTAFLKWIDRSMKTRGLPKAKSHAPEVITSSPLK
# T1 sequence (P00742 41-179 limits assumed): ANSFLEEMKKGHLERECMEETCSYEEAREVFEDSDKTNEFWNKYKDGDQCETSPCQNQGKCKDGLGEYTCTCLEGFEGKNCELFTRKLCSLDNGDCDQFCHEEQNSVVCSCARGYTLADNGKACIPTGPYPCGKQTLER
# Experimental: as §1
# α-Thrombin = target: T2, α-Thrombin (Homo sapiens, UniProt P00734); assay: Chromogenic substrate assay, Ki determination, α-Thrombin; assay type: biochemical
# T2 construct: FXa converts prothrombin to thrombin; purchased Haematologic Technologies (Essex Junction, VT, USA)
# Experimental: as §1
# Trypsin = assay: Chromogenic substrate assay, Ki determination, Trypsin; assay type: biochemical, human
# Experimental: as §1
# [1] = test system: Streptokinase (Homo sapiens); assay: Chromogenic substrate assay, Ki determination, Streptokinase; assay type: biochemical
# Sequence of Streptokinase (Homo sapiens) (P00747 581-810 limits assumed): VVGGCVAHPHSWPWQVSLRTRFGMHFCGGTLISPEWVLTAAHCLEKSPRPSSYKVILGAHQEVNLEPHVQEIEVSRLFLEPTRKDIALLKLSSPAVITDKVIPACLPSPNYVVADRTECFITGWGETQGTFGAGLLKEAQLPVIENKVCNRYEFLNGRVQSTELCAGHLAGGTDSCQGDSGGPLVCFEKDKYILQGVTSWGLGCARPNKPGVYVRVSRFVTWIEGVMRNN
# Experimental: as §1
smiles,measurement,setting,value
"CC(=O)NCCc1ccc2c(c1)O[C@H](c1ccc(O)c(O)c1)[C@H](NC(C)=O)O2 [Compound 1, (2 R,3 R)-2-(3′,4′-dihydroxyphenyl)-3-acetylamino-7-(N-acetyl-2″-aminoethyl)-1,4-benzodioxane]","Ratio = Ki enzyme/Ki Factor Xa, Urokinase",Urokinase,>100
same,Ki,Urokinase; substrate S-2444,> 300 µM
same,bleeding time,C57BL/6 mice; mice treated with 10 µM,13.5 ± 1.3 min
same,bleeding time,C57BL/6 mice; mice treated with 30 µM,14.3 ± 1.2 min
same,"Ratio = Ki enzyme/Ki Factor Xa, Protein Ca",Protein Ca,>100
same,Ki,Protein Ca; substrate S-2366,> 300 µM
same,"Ratio = Ki enzyme/Ki Factor Xa, Factor Xa",FXa,1
same,Ki,"FXa; substrate S-2765 (Table 3), mean ± SD (n = 5)",2960 ± 250 nM
same,"Ratio = Ki enzyme/Ki Factor Xa, α-Thrombin",α-Thrombin,>100
same,Ki,α-Thrombin; substrate S-2238,> 300 µM
same,"Ratio = Ki enzyme/Ki Factor Xa, Trypsin",Trypsin,>100
same,Ki,Trypsin; substrate S-2222,> 300 µM
same,"Ratio = Ki enzyme/Ki Factor Xa, Streptokinase",[1],>100
same,Ki,[1]; substrate S-2251,> 300 µM
